# Laboratory results reported in ChEMBL document CHEMBL4145686, “Discovery of a Potent and Selective Steroidal Glucocorticoid Receptor Antagonist (ORIC-101)” (J Med Chem, 2018).
# Tests used:
# [1] = Unbound fraction in human plasma relative to mifepristone; assay type: ADME, cell-free
# [2] = Antagonist activity at GR in monkey PBMC assessed as reduction in dexamethasone-induced FKBP5 gene expression incubated for 6 hrs by RT-qPCR method; assay type: cell-based; details: Macaca mulatta
# [3] = Half life in rat at 0.5 mg/kg, iv; assay type: ADME, organism-based; details: in vivo
# Glucocorticoid receptor [4] = target: T1, Glucocorticoid receptor (Homo sapiens, UniProt P04150); test: Antagonist activity at human GR expressed in CHO-K1 cells assessed as reduction in dexamethasone-induced response incubated for 20 hrs by luciferase reporter gene assay; assay type: cell-based
# T1 sequence (P04150 whole entry): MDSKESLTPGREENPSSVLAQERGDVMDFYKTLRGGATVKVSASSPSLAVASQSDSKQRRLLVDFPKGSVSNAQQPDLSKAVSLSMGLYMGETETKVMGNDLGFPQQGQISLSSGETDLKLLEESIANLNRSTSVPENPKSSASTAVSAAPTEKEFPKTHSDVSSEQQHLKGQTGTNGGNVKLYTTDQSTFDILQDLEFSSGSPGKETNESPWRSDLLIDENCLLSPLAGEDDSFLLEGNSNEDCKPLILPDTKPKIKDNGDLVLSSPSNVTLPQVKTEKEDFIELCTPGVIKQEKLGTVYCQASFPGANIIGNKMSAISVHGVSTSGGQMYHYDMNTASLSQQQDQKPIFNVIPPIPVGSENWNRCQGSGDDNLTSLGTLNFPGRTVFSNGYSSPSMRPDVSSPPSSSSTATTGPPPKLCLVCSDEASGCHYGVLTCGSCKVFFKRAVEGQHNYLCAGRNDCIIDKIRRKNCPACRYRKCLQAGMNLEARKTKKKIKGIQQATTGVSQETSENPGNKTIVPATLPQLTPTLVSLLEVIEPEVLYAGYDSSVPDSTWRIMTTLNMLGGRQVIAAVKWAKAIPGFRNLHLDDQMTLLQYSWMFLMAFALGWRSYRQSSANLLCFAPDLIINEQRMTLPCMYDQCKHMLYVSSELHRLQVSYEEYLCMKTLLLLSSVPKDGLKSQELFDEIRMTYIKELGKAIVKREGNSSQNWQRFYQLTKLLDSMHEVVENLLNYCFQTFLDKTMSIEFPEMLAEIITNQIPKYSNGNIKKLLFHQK
# Androgen receptor = target: T2, Androgen receptor (Homo sapiens, UniProt P10275); test: Agonist activity at AR in human MDA-MB-453 cells assessed as increase in CLDN8 gene expression at 111 to 333 nM incubated for 24 hrs by RT-qPCR method; assay type: cell-based; details: mda-mb-453, 24 h, 0.333 µM
# T2 sequence (P10275 whole entry): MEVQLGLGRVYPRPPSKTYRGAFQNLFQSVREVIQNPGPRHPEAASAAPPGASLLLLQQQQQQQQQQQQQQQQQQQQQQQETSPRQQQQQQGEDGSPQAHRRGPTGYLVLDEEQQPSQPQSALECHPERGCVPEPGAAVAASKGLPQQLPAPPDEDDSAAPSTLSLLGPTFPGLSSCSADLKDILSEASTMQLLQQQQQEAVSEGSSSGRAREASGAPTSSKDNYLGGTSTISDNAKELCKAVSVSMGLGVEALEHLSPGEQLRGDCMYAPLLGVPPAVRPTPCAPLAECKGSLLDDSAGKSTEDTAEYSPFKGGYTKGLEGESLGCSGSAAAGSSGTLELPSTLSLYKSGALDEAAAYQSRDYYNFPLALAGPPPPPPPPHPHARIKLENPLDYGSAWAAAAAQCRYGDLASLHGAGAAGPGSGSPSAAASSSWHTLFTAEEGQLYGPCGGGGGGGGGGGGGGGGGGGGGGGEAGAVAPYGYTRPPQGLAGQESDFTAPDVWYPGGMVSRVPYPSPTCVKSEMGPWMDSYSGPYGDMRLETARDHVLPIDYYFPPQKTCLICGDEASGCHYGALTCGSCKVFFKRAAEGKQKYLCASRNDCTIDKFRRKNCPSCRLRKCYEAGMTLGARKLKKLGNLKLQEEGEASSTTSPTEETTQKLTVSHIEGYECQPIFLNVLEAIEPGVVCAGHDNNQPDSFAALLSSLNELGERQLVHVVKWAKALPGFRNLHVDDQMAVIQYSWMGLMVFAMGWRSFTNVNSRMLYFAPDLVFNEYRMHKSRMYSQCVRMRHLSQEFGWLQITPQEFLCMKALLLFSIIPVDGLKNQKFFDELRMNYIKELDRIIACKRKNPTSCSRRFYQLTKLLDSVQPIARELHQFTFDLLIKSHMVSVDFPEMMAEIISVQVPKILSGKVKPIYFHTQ
# [5] = target: T3, glucocorticoid receptor (GR) (Homo sapiens, UniProt P04150); test: Agonist activity at human GR expressed in CHO-K1 cells incubated for 20 hrs by luciferase reporter gene assay relative to dexamethasone; assay type: cell-based; details: CHO-K1 cells expressing human GR
# T3 sequence (P04150 whole entry): T1 sequence (P04150 whole entry)
# [6] = Volume of distribution at steady state in mini pig at 0.5 mg/kg, iv; assay type: ADME, organism-based, Sus scrofa; details: in vivo, read-out: Vdss
# [7] = Antagonist activity at GR in monkey PBMC assessed as reduction in dexamethasone-induced GILZ gene expression incubated for 6 hrs by RT-qPCR method; assay type: cell-based; details: Macaca mulatta
# [8] = Clearance in mini pig at 0.5 mg/kg, iv; assay type: ADME, organism-based, Sus scrofa; details: in vivo
# [9] = Unbound fraction in human plasma; assay type: ADME, cell-free
# Glucocorticoid receptor [10] = target: T4, Glucocorticoid receptor (Canis lupus familiaris, UniProt A0A8C0QLS2); test: Antagonist activity at GR in dog PBMC assessed as reduction in dexamethasone-induced GILZ gene expression incubated for 6 hrs by RT-qPCR method; assay type: cell-based
# T4 sequence (A0A8C0QLS2 whole entry): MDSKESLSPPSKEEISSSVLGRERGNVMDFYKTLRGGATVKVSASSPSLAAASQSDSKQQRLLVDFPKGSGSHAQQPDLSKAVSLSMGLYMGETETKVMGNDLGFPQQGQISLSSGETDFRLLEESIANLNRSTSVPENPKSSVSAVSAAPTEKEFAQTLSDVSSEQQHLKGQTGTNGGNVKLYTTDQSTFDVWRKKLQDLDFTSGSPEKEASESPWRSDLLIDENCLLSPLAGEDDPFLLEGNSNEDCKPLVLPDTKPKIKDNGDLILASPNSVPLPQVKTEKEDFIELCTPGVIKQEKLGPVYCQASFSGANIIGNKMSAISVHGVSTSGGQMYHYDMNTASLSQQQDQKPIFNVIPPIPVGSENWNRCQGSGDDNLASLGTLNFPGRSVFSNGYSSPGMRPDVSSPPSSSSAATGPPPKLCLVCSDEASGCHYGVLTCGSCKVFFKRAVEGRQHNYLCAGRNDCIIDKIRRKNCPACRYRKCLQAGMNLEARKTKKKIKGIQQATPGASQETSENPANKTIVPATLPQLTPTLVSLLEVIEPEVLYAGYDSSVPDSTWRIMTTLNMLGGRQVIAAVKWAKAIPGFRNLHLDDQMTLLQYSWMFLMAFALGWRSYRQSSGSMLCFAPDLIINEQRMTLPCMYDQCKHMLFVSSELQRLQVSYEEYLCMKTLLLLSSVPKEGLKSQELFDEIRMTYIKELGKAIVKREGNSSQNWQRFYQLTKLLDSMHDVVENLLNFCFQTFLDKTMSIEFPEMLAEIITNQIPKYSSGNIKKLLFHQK
smiles,measurement,setting,value
CC(C)N(C)c1ccc([C@H]2C[C@@]3(C)[C@@H](CC[C@@]3(O)C#CC(C)(C)C)[C@@H]3CCC4=CC(=O)CC[C@@H]4[C@H]32)cc1,Ratio,[1],10
same,IC50,[2],11.1 nM
same,half-life,[3],4.4 h
same,IC50,Glucocorticoid receptor [4],5.6 nM
same,Activity,Androgen receptor,Not Active
same,Emax at 20 h,[5],2.3%
same,Vd,[6],7.8 L/kg
same,IC50,[7],14.9 nM
same,clearance,[8],18.3 mL/min/kg
same,fraction unbound,[9],0.14
same,IC50,Glucocorticoid receptor [10],34.3 nM
